According to patent US10894798B2, “Substituted dihydropyrrolopyrazole derivative” (UBE INDUSTRIES, LTD., priority 2015, dated 2021):

Assays:
[1] = test system: mouse collagen-induced arthritis model; assay: Swelling suppression test using mouse collagen-induced arthritis model; format: in vivo; details: dose of 100 mg/kg, repeated oral administration, male DBA/1J mice
Method: A mouse collagen-induced arthritis model test was carried out by modifying the method of Mihara et al. (British Journal of Pharmacology, 154, 153 (2008)).
Male DBA/1J mice (supplied by Japan SLC, Inc.) were used as laboratory animals. An adjuvant prepared from a type II collagen solution (Collagen Research Center) and Adjuvant Complete Freund (manufactured by Difco Laboratories Ltd.) was intracutaneously administered twice to the bases of the tails of the mice under inhalation anesthesia with isoflurane (manufactured by Wako Pure Chemical Industries, Ltd.) for sensitization to prepare arthritis models.
Also, Adjuvant Complete Freund (manufactured by Difco Laboratories Ltd.) not containing type II collagen was administered by a similar method to obtain a control group. […]
During the test period, the swelling scoring of limbs (score 0: no disease, score 1: swelling and redness or weak swelling in the small joint of only one of the toes and the fingers, score 2: moderate swelling in the small joints of two or more of the toes and the fingers, score 3: strong swelling in the ankle or the forefoot wrist, score 4: overall strong swelling) was carried out to evaluate the drug efficacy of the test compound. When the total score of the solvent-administered group on the final day was defined as 100%, the rate of reduction in score (%) at each dose of the test compound was calculated.

[2] = test system: human large intestine cancer cell line HCT-116; assay: In vitro cell growth inhibitory activity against human large intestine cancer line by combined use with chemotherapeutic; format: cell-based; details: HCT-116, 3 days, IV-361 10 nM
Method: A human large intestine cancer cell line HCT-116 (obtained from DS Pharma Biomedical Co., Ltd.) was cultured in a McCoy's 5A medium (manufactured by Thermo Fisher Scientific, Inc.) containing 10% fetal bovine serum (FBS) (manufactured by Thermo Fisher Scientific, Inc.) and 1% penicillin/streptomycin/amphotericin B (manufactured by Thermo Fisher Scientific, Inc.) and inoculated at 0.5 to 2.0×10^3 cells/well to a 96-well plate. The cells were cultured overnight in a carbon dioxide incubator of 37° C. containing 5% carbon dioxide. The medium was replaced with a fresh medium on the next day, and then, a mixed solution of a DMSO solution of a test compound (IV-361, 5-FU or SN-38) with varying concentrations and a cell culture medium (final DMSO concentration: 0.2%) was added thereto. The concentration of the test compound was 10 nM, the concentration of 5-FU (manufactured by Wako Pure Chemical Industries, Ltd.) was 1000 nM, and the concentration of SN-38 (manufactured by Tocris Bioscience) was adjusted to 1 nM to carry out the test. For a control group, a mixed solution of DMSO and a cell culture medium (final DMSO concentration: 0.2%) was used instead of the DMSO solution of the test compound.
After the addition of the DMSO solution of the test compound, the cells were cultured for 3 days in a carbon dioxide incubator. Then, the absorbance (measurement wavelength: 565 nm) of the medium in each group was measured by using In Vitro Toxicology Assay Kit Sulforhodamine B based (manufactured by Sigma-Aldrich Co. LLC.).
The rate of inhibition of growth (%) was calculated according to the expression given below. Specifically, in the case where the difference between the average absorbance before culture (day 0) and the average absorbance after culture in the test compound-administered group is the same as the difference between the average absorbance before culture (day 0) and the average absorbance after culture in the control group, the rate of inhibition of cell growth is 0%. Rate of inhibition of growth=(1−((Average absorbance of the test compound-administered group after culture)−(Average absorbance of the test compound-administered group on day 0))/((Average absorbance of the control group after culture)−(Average absorbance of the control group on day 0)))×100

[3] = test system: human large intestine cancer cell line (HCT-116) tumor; assay: In vivo tumor growth inhibition test for human large intestine cancer cell line by combined use with chemotherapeutic; details: for Rate of suppression of tumor volume: IV-361 25 mg/kg/day oral, alone
Method: The prepared cell suspension was subcutaneously injected at 0.1 mL/mouse to the right abdomens of female BALB nude mice (supplied by Charles River Laboratories Japan, Inc.).
Individuals whose tumor volume was within the range of 50 to 200 mm^3 were selected and grouped such that the tumor volume was almost equivalent. After the grouping, a test compound or only a solvent was administered in a repeated manner to the mice of each group as follows:
Single-agent administration group:
Control group: solvent (administered once a day)
5-FU, oxaliplatin, and irinotecan were intraperitoneally administered (5 mL/kg).
After a lapse of a predetermined period, the body weights of the mice of each group and the long diameter and short diameter of tumor were measured, and the tumor volume of the test compound-administered group with respect to the tumor volume of the control group was calculated as the rate of suppression of tumor volume (%).

In the case of Cc1ccc(F)cc1NC(=O)N1Cc2c(NC(=O)C3([Si](C)(C)C)CCC3)n[nH]c2C1(C)C [IV-361, N-(5-Fluoro-2-methylphenyl)-6,6-dimethyl-3-[1-(trimethylsilyl)cyclobutanecarboxamido]-4,6-dihydropyrrolo[3,4-c]pyrazole-5 (1H)-carboxamide], the “rate of inhibition (reduction in swelling score)” value [1] is reported as ≥ 50%, the inhibition at 0.01 µM ([2]; Homo sapiens, 72 h, single-agent treatment, read-out: Rate of inhibition of growth (%)) is reported as 11% and the “cancer cell growth inhibitory effect in combined use with chemotherapeutic (5-FU or SN-38)” value ([2]; 5-FU 1000 nM, SN-38 1 nM) is reported as “synergistic cancer cell growth inhibitory effect”. The “rate of suppression of tumor volume in combined use with chemotherapeutic (5-FU, oxaliplatin or irinotecan)” value ([3]; 25 mg/kg IV-361 oral + 15 mg/kg 5-FU, 3 mg/kg oxaliplatin or 12.5 mg/kg irinotecan i.p., HCT-116 nude mice) was “excellent rate of suppression of tumor volume”, the “Rate of suppression of tumor volume” value ([3]; Table 52) was 46% and the “Rate of suppression of tumor volume” value ([3]; Table 53) was 46%. For the same compound, the “Rate of suppression of tumor volume” value ([3]; Table 54) was 20%.
